Data set [1] can be described thus: Caco-2 flux assay for cell permeability. The conditions noted are these: human; for Papp B→A at 2 h: Caco-2, 2 hours incubation; for efflux ratio at 2 h: ratio of Papp (B-A) to Papp (A-B), Caco-2. The class given is in vitro ADME. For orientation: Caco-2 monolayers are a common model of the intestinal barrier.
The test system of data set [2] is KPL4: human breast cancer cell line. As to the kind of experiment: MTT assay, cytotoxic effect on KPL4. The class given is cell-based. The conditions noted are these: Table 2, metabolites and small-molecule reference examples. How it is done: (§1) The analysis of the cytotoxic effects of the ADCs was carried out with various cell lines:
(§2) The cells were cultivated by the standard method as stated by the American Tissue Culture Collection (ATCC) or the Leibniz-Institut DSMZ-Deutsche Sammlung von Mikroorganismen und Zellkulturen GmbH (DSMZ) for the cell lines in question.
(§3) The cells were then incubated in an incubator at 37° C., and 5% carbon dioxide. […] To this end, the MTT reagent was incubated with the cells for 4 h, followed by lysis of the cells overnight by addition of the detergent. […] The measured data were used to calculate the IC50 of the growth inhibition using the DRC (dose response curve). The proliferation of cells which were not treated with test substance but were otherwise identically treated was defined as the 100% figure.
A general note: Formazan colour is commonly taken as a measure of viable cells.

For data set [3], the system named is SK-HEP-1: human liver cell cancer line. Description: MTT assay, cytotoxic effect on SK-HEP-1. The class given is cell-based. The conditions noted are these: Table 2, metabolites and small-molecule reference examples. How it is done: as §1, §2, §3
Data set [4] concerns NCI-H292: human mucoepidermoid lung carcinoma cells. Description: MTT assay, cytotoxic effect on NCI-H292. It counts as cell-based. The conditions noted are these: Table 2, metabolites and small-molecule reference examples. How it is done: as §1, §2, §3
The subject of the next data set is Caco-2 cells. Description: Caco-2 flux assay for cell permeability. The class given is in vitro ADME. The conditions noted are these: Caco-2, 2 hours incubation.

By Papp B→A is commonly meant the apparent permeability from the basolateral to the apical side of a cell layer. The term efflux ratio denotes the permeability from basolateral to apical divided by that in the opposite direction, in the common usage. In general, IC50 refers to the concentration needed to halve the response being measured.

In the case of `CC(C)(C)[C@H](c1cc(-c2cc(F)ccc2F)cn1Cc1ccccc1)N(CC[C@H](N)C(=O)NCCNC(=O)CNC(=O)CCCC(=O)NCCCC[C@H](N)C(=O)O)C(=O)CO.O=C(O)C(F)(F)F` [Example M28, N^6-{(3R,7S)-7-Amino-3-[1-benzyl-4-(2,5-difluorophenyl)-1H-pyrrol-2-yl]-4-glycoloyl-2,2-dimethyl-8,13,16,20-tetraoxo-4,9,12,15-tetraazaicosan-20-yl}-L-lysine/trifluoroacetic acid (1:1)], in data set [1], the Papp B→A at 2 h was 0.19 ×10⁻⁶ cm/s and the efflux ratio at 2 h is 1.
On to `CC(C)(C)[C@H](c1cc(-c2cc(F)ccc2F)cn1Cc1ccccc1)N(CC[C@H](N)C(=O)NCCNC(=O)CNC(=O)C(CC(=O)O)SC[C@H](N)C(=O)O)C(=O)CO` (single isomer, unassigned) [Example M16], for which the half-inhibitory concentration (IC50) in data set [2] was determined as 195 nM; in data set [3] it was 44 nM; in data set [4] it was 143 nM.
Regarding `CC(C)(C)[C@H](c1cc(-c2cc(F)ccc2F)cn1Cc1ccccc1)N(CC[C@H](N)C(=O)NCCNC(=O)CNC(=O)CC(SC[C@H](N)C(=O)O)C(=O)O)C(=O)CO.O=C(O)C(F)(F)F` (stereo partly drawn) [Example M26, 4-[(2-{[2-({(2S)-2-Amino-4-[{(1R)-1-[1-benzyl-4-(2,5-difluorophenyl)-1H-pyrrol-2-yl]-2,2-dimethylpropyl}(glycoloyl)amino]butanoyl}amino)ethyl]amino}-2-oxoethyl)amino]-2-{[(2R)-2-amino-2-carboxyethyl]sulphanyl}-4-oxobutanoic acid/trifluoroacetic acid (1:1)], the IC50 in data set [3] was 19 nM; in data set [4] it was 63.8 nM. Moreover, in the data set on Caco-2 cells, the “Papp (B-A)” value was determined as 1.3 ×10⁻⁶ cm/s.
Consider `CC(C)(C)[C@H](c1cc(-c2cc(F)ccc2F)cn1Cc1ccccc1)N(CCCN)C(=O)CSC[C@H](NC(=O)CCOCCOCCOCCOCCNC(=O)CNC(=O)CC(SC[C@H](N)C(=O)O)C(=O)O)C(=O)O.O=C(O)C(F)(F)F.O=C(O)C(F)(F)F` (stereo partly drawn) [Example M20, (1R,4R,27R,33R)-1-Amino-32-(3-aminopropyl)-33-[1-benzyl-4-(2,5-difluorophenyl)-1H-pyrrol-2-yl]-34,34-dimethyl-6,9,25,31-tetraoxo-13,16,19,22-tetraoxa-3,29-dithia-7,10,26,32-tetraazapentatriacontane-1,4,27-tricarboxylic acid/trifluoroacetic acid (1:2)], for which the apparent permeability from basolateral to apical (Papp B→A) at 2 h in data set [1] amounted to 0.09 ×10⁻⁶ cm/s.
`CC(C)(C)[C@H](c1cc(-c2cc(F)ccc2F)cn1Cc1ccccc1)N(CC[C@H](N)C(=O)NCCNC(=O)CCCC(=O)NCCCC[C@H](N)C(=O)O)C(=O)CO.O=C(O)C(F)(F)F` [Example M29, N^6-(5-{[2-({(2S)-2-Amino-4-[{(1R)-1-[1-benzyl-4-(2,5-difluorophenyl)-1H-pyrrol-2-yl]-2,2-dimethylpropyl}(glycoloyl)amino]butanoyl}amino)ethyl]amino}-5-oxopentanoyl)-L-lysine/trifluoroacetic acid (1:1)]: in data set [1], the basolateral-to-apical permeability (Papp B→A) at 2 h was found to be 0.41 ×10⁻⁶ cm/s and the efflux ratio at 2 h was 5.3.
For the molecule `CC(C)(C)[C@H](c1cc(-c2cc(F)ccc2F)cn1Cc1ccccc1)N(CC[C@H](N)C(=O)N[C@H](CCC(=O)O)C(=O)O)C(=O)CO.O=C(O)C(F)(F)F` [Example M25, N-{(2S)-2-Amino-4-[{(1R)-1-[1-benzyl-4-(2,5-difluorophenyl)-1H-pyrrol-2-yl]-2,2-dimethylpropyl}(glycoloyl)amino]butanoyl}-L-glutamic acid/trifluoroacetic acid (1:1)], the half-inhibitory concentration (IC50) in data set [2] (Homo sapiens, KPL4) amounted to 500 nM; in data set [3] (Homo sapiens, SK-HEP1), 500 nM; in data set [4] (Homo sapiens, NCI-H292) it was 500 nM. Moreover, the “Papp (B-A)” value in the data set on Caco-2 cells was determined as 0.81 ×10⁻⁶ cm/s.

The values are drawn from patent US20240043379A1, “PRODRUGS OF CYTOTOXIC ACTIVE AGENTS HAVING ENZYMATICALLY CLEAVABLE GROUPS” (Bayer Pharma Aktiengesellschaft, priority 2016, published 2024).
